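Cells were grown in 96-well plates and exposed to each compound for 48 hours at five concentrations; endpoints were interpolated linearly between bracketing concentrations, or set to the highest concentration if not reached. At the GI50, growth is halved. TGI denotes the concentration required for complete inhibition of growth.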
How the values were obtained:
Experiment in all cases: NCI anticancer screen, dose series, 48 h
786-0 renal = test system: 786-0 renal
A498 renal = test system: A498 renal
A549 NSCLC = test system: A549 NSCLC
ACHN renal = test system: ACHN renal
BT-549 breast = test system: BT-549 breast
CAKI-1 renal = test system: CAKI-1 renal
CCRF-CEM leukemia = test system: CCRF-CEM leukemia
COLO 205 colon = test system: COLO 205 colon
DU-145 prostate = test system: DU-145 prostate
HCT-116 colon = test system: HCT-116 colon
HCT-15 colon = test system: HCT-15 colon
HL-60(TB) leukemia = test system: HL-60(TB) leukemia
HOP-62 NSCLC = test system: HOP-62 NSCLC
HOP-92 NSCLC = test system: HOP-92 NSCLC
HS 578T breast = test system: HS 578T breast
HT29 colon = test system: HT29 colon
IGROV1 ovarian = test system: IGROV1 ovarian
K-562 leukemia = test system: K-562 leukemia
KM12 colon = test system: KM12 colon
M14 melanoma = test system: M14 melanoma
MALME-3M melanoma = test system: MALME-3M melanoma
MCF7 breast = test system: MCF7 breast
MDA-MB-231 breast = test system: MDA-MB-231 breast
MDA-MB-435 = test system: MDA-MB-435
MOLT-4 leukemia = test system: MOLT-4 leukemia
NCI-H226 lung = test system: NCI-H226 lung
NCI-H23 lung = test system: NCI-H23 lung
NCI-H460 lung = test system: NCI-H460 lung
NCI-H522 lung = test system: NCI-H522 lung
NCI/ADR-RES ovarian = test system: NCI/ADR-RES ovarian
OVCAR-3 ovarian = test system: OVCAR-3 ovarian
OVCAR-4 ovarian = test system: OVCAR-4 ovarian
OVCAR-5 ovarian = test system: OVCAR-5 ovarian
OVCAR-8 ovarian = test system: OVCAR-8 ovarian
PC-3 prostate = test system: PC-3 prostate
RPMI-8226 leukemia = test system: RPMI-8226 leukemia
RXF 393 renal = test system: RXF 393 renal
SF-268 CNS = test system: SF-268 CNS
SF-295 CNS = test system: SF-295 CNS
SF-539 CNS = test system: SF-539 CNS
SK-MEL-2 melanoma = test system: SK-MEL-2 melanoma
SK-MEL-28 melanoma = test system: SK-MEL-28 melanoma
SK-MEL-5 melanoma = test system: SK-MEL-5 melanoma
SK-OV-3 ovarian = test system: SK-OV-3 ovarian
SN12C renal = test system: SN12C renal
SNB-19 CNS = test system: SNB-19 CNS
SNB-75 CNS = test system: SNB-75 CNS
SR leukemia = test system: SR leukemia
SW-620 colon = test system: SW-620 colon
T-47D breast = test system: T-47D breast
TK-10 renal = test system: TK-10 renal
U251 CNS = test system: U251 CNS
UACC-257 melanoma = test system: UACC-257 melanoma
UACC-62 melanoma = test system: UACC-62 melanoma
UO-31 renal = test system: UO-31 renal

`C=CCOC(=O)Nc1cccn([C@H](CC(C)C)C(=O)NCCC(C)C)c1=O` was tested, and the GI50 (786-0 renal) was greater than 100 µM, the TGI (786-0 renal) was greater than 100 µM and the GI50 (A498 renal) was 17.2 µM. For the same molecule, the TGI (A498 renal) was greater than 100 µM, the GI50 (A549 NSCLC) was 78.5 µM and the TGI (A549 NSCLC) was greater than 100 µM. For the same molecule, the GI50 (ACHN renal) was greater than 100 µM, the TGI (ACHN renal) was greater than 100 µM and the GI50 (BT-549 breast) was greater than 100 µM. For the same molecule, the TGI (BT-549 breast) was greater than 100 µM, the GI50 (CAKI-1 renal) was 29 µM and the TGI (CAKI-1 renal) was greater than 100 µM. For the same molecule, the GI50 (CCRF-CEM leukemia) was 26.8 µM, the TGI (CCRF-CEM leukemia) was 90.3 µM and the GI50 (COLO 205 colon) was greater than 100 µM. The TGI (COLO 205 colon) was greater than 100 µM, the GI50 (DU-145 prostate) was greater than 100 µM and the TGI (DU-145 prostate) was greater than 100 µM. For the same molecule, the GI50 (HCT-116 colon) was 49.6 µM, the TGI (HCT-116 colon) was greater than 100 µM and the GI50 (HCT-15 colon) was 84.5 µM. It also gave a TGI (HCT-15 colon) greater than 100 µM, a GI50 (HL-60(TB) leukemia) of 58.9 µM and a TGI (HL-60(TB) leukemia) greater than 100 µM. For the same molecule, the GI50 (HOP-62 NSCLC) was greater than 100 µM, the TGI (HOP-62 NSCLC) was greater than 100 µM and the GI50 (HOP-92 NSCLC) was 2.67 µM. For the same molecule, the TGI (HOP-92 NSCLC) was 57.8 µM, the GI50 (HS 578T breast) was 87.8 µM and the TGI (HS 578T breast) was greater than 100 µM. It also gave a GI50 (HT29 colon) greater than 100 µM, a TGI (HT29 colon) greater than 100 µM and a GI50 (IGROV1 ovarian) of 60.4 µM. The TGI (IGROV1 ovarian) was greater than 100 µM, the GI50 (K-562 leukemia) was 96 µM and the TGI (K-562 leukemia) was greater than 100 µM. It also gave a GI50 (KM12 colon) of 92.8 µM, a TGI (KM12 colon) greater than 100 µM and a GI50 (M14 melanoma) greater than 100 µM. The TGI (M14 melanoma) was greater than 100 µM, the GI50 (MALME-3M melanoma) was greater than 100 µM and the TGI (MALME-3M melanoma) was greater than 100 µM. For the same molecule, the GI50 (MCF7 breast) was 99.4 µM, the TGI (MCF7 breast) was greater than 100 µM and the GI50 (MDA-MB-231 breast) was 21.1 µM. The TGI (MDA-MB-231 breast) was 67.2 µM, the GI50 (MDA-MB-435) was greater than 100 µM and the TGI (MDA-MB-435) was greater than 100 µM. For the same molecule, the GI50 (MOLT-4 leukemia) was 61.9 µM, the TGI (MOLT-4 leukemia) was greater than 100 µM and the GI50 (NCI-H226 lung) was greater than 100 µM. The TGI (NCI-H226 lung) was greater than 100 µM, the GI50 (NCI-H23 lung) was 57.2 µM and the TGI (NCI-H23 lung) was greater than 100 µM. It also gave a GI50 (NCI-H460 lung) greater than 100 µM, a TGI (NCI-H460 lung) greater than 100 µM and a GI50 (NCI-H522 lung) of 63.8 µM. It also gave a TGI (NCI-H522 lung) greater than 100 µM, a GI50 (NCI/ADR-RES ovarian) of 57.9 µM and a TGI (NCI/ADR-RES ovarian) greater than 100 µM. For the same molecule, the GI50 (OVCAR-3 ovarian) was 54.5 µM, the TGI (OVCAR-3 ovarian) was greater than 100 µM and the GI50 (OVCAR-4 ovarian) was 28.1 µM. For the same molecule, the TGI (OVCAR-4 ovarian) was greater than 100 µM, the GI50 (OVCAR-5 ovarian) was greater than 100 µM and the TGI (OVCAR-5 ovarian) was greater than 100 µM. The GI50 (OVCAR-8 ovarian) was greater than 100 µM, the TGI (OVCAR-8 ovarian) was greater than 100 µM and the GI50 (PC-3 prostate) was 49.7 µM. For the same molecule, the TGI (PC-3 prostate) was greater than 100 µM, the GI50 (RPMI-8226 leukemia) was 22.7 µM and the TGI (RPMI-8226 leukemia) was greater than 100 µM. It also gave a GI50 (RXF 393 renal) greater than 100 µM, a TGI (RXF 393 renal) greater than 100 µM and a GI50 (SF-268 CNS) of 84.8 µM. The TGI (SF-268 CNS) was greater than 100 µM, the GI50 (SF-295 CNS) was 18.7 µM and the TGI (SF-295 CNS) was greater than 100 µM. It also gave a GI50 (SF-539 CNS) greater than 100 µM, a TGI (SF-539 CNS) greater than 100 µM and a GI50 (SK-MEL-2 melanoma) greater than 100 µM. It also gave a TGI (SK-MEL-2 melanoma) greater than 100 µM, a GI50 (SK-MEL-28 melanoma) greater than 100 µM and a TGI (SK-MEL-28 melanoma) greater than 100 µM. For the same molecule, the GI50 (SK-MEL-5 melanoma) was 74.7 µM, the TGI (SK-MEL-5 melanoma) was greater than 100 µM and the GI50 (SK-OV-3 ovarian) was greater than 100 µM. It also gave a TGI (SK-OV-3 ovarian) greater than 100 µM, a GI50 (SN12C renal) greater than 100 µM and a TGI (SN12C renal) greater than 100 µM. For the same molecule, the GI50 (SNB-19 CNS) was greater than 100 µM, the TGI (SNB-19 CNS) was greater than 100 µM and the GI50 (SNB-75 CNS) was 4.91 µM. It also gave a TGI (SNB-75 CNS) greater than 100 µM, a GI50 (SR leukemia) of 72.7 µM and a TGI (SR leukemia) greater than 100 µM. For the same molecule, the GI50 (SW-620 colon) was greater than 100 µM, the TGI (SW-620 colon) was greater than 100 µM and the GI50 (T-47D breast) was 68.2 µM. For the same molecule, the TGI (T-47D breast) was greater than 100 µM, the GI50 (TK-10 renal) was greater than 100 µM and the TGI (TK-10 renal) was greater than 100 µM. The GI50 (U251 CNS) was 92.3 µM, the TGI (U251 CNS) was greater than 100 µM and the GI50 (UACC-257 melanoma) was 66.5 µM. For the same molecule, the TGI (UACC-257 melanoma) was greater than 100 µM, the GI50 (UACC-62 melanoma) was greater than 100 µM and the TGI (UACC-62 melanoma) was greater than 100 µM. It also gave a GI50 (UO-31 renal) of 27.5 µM and a TGI (UO-31 renal) greater than 100 µM.
